Experiments:
[1] = target: T1, MEK4 (Homo sapiens, UniProt P45985); experiment: TR-FRET displacement of active site tracer; type: binding; conditions: 10 µM
T1 sequence (P45985 1-399): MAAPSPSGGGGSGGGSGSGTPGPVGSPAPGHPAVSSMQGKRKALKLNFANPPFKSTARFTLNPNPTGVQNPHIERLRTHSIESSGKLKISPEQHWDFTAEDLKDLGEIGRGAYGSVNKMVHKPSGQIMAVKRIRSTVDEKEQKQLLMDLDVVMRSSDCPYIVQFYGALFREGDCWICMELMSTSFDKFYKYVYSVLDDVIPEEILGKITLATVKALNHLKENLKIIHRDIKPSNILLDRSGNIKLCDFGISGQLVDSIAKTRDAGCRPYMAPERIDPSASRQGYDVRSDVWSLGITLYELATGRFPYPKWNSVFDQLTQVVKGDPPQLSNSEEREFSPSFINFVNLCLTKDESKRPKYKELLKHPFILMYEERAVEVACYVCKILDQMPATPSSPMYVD

[2] = system: 57 diverse kinases; experiment: Kinase selectivity panel of 57 diverse kinases; type: biochemical; conditions: 10 µM
[3] = system: proliferation and viability of cells; experiment: Trypan blue exclusion, cells treated for 3 days; type: cell-based; conditions: comparison against genistein at 10 µM, p < 0.05
[4] = system: cancer cell motility and migration; experiment: Wound scratch assay; type: cell-based
[5] = system: Cot; conditions: ref 10a; cited from earlier work
[6] = target: T2, MEK7 (Homo sapiens, UniProt O14733); conditions: cited from earlier work
T2 sequence (O14733 1-419): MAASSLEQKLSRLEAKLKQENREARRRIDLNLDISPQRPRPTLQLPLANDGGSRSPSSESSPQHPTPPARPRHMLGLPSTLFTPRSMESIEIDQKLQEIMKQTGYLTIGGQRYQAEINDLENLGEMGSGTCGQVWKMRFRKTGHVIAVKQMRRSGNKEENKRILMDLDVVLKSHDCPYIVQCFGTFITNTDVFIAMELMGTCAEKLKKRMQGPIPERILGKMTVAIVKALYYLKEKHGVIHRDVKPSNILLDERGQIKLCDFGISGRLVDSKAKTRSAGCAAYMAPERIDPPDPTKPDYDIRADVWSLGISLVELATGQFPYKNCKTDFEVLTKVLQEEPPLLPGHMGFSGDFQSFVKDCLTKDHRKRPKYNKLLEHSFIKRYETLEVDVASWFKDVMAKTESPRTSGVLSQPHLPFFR

[7] = target: T1, MEK4; conditions: cited from earlier work

Compound: CN[C@@H]1C[C@H]2O[C@@](C)([C@@H]1OC)n1c3ccccc3c3c4c(c5c6ccccc6n2c5c31)C(=O)NC4 [staurosporine]
- TR-FRET ratio, displacement of tracer bound to MEK4 active site [1]: background levels

Compound: O=C(O)c1ccc(-c2n[nH]c3cc(F)ccc23)cc1 [Compound 6ff, 4-(6-fluoro-2H-indazol-3-yl)benzoic acid]
- number of kinases inhibited > 35% out of 57 tested [2]: 12
- S(35) value ([2]; 57 kinases): 0.21
- toxicity (proliferation and viability, trypan blue exclusion) [3]: less toxicity compared to the promiscuous kinase inhibitor genistein
- efficacy in wound scratch assay ([4]; 10 µM): no efficacy
- efficacy in wound scratch assay ([4]; 25 µM): no efficacy

Compound: O=c1c(-c2ccc(O)c(O)c2)coc2cc(O)ccc12 [THIF, 7, 3’, 4’-trihydroxyisoflavone]
- inhibition of Cot activity [5]: inhibits Cot activity

Compound: COc1ccc2c(Cc3ccc(O[Si](C)(C)C(C)(C)C)cc3)c3[n+](cc2c1OC)CCc1cc2c(cc1-3)OCO2 [HWY336]
- inhibition of MEK7 [6]: inhibits both MEK4 and MEK7
- inhibition of MEK4 [7]: inhibits both MEK4 and MEK7

— paper PMC6476181 (ChemMedChem, 2019)
